The target in one test is T1, EGFR-L858R/T790M/C797S (Homo sapiens, UniProt P00533, C797S/L858R/T790M).
T1 construct: expressed in transfected cells; host or cells: H1975-clone #25 (lentiviral over-expression, endogenous EGFR knocked out)
Put plainly: EGFR degradation HTRF assay in H1975-clone #25 cells. The following applies: 16 h treatment; for DC50: H1975-clone #25 (L858R/T790M/C797S) cells, IC50 (DC50), read-out: DC50(nM) H1975 # 25-LTC; for Dmax: NCI-H1975, H1975-clone #25 (L858R/T790M/C797S) cells, maximum percentage of inhibition (degradation), read-out: Dmax (%) H1975 # 25-LTC. It counts as cell-based. In outline:
(§1)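 H1975 clones with endogenous EGFR knocked out, homozygously expressing lentiviral L858R/T790M/C797S (#25) or Del19/T790M/C797S (#28), treated 16 h at 37° C with 8 doses from 10 uM, 5-fold, in 0.2% DMSO. EGFR in lysates measured by HTRF overnight; DC50 from four-parameter fit of % degradation.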
(Time-resolved FRET reads energy transfer from a long-lived donor to a nearby acceptor.)

Another test concerns EGFR-Del19/T790M/C797S. The test can be described thus: EGFR degradation HTRF assay in H1975-clone #28 cells. The conditions noted are these: H1975-clone #28 (Del19/T790M/C797S) cells, 16 h treatment; for DC50: IC50 (DC50), read-out: DC50(nM) H1975 # 28 DTC; for Dmax (%) H1975 # 28 DTC: maximum percentage of inhibition (degradation). It counts as cell-based. In outline: as §1

The values that follow come from patent US20240368203A1, “DEGRADATION OF (EGFR) BY CONJUGATION OF EGFR INHIBITORS WITH E3 LIGASE LIGAND AND METHODS OF USE” (BeiGene, Ltd., priority 2022, published 2024).

T1 sequence (P00533 25-1210 T790M/C797S/L858R): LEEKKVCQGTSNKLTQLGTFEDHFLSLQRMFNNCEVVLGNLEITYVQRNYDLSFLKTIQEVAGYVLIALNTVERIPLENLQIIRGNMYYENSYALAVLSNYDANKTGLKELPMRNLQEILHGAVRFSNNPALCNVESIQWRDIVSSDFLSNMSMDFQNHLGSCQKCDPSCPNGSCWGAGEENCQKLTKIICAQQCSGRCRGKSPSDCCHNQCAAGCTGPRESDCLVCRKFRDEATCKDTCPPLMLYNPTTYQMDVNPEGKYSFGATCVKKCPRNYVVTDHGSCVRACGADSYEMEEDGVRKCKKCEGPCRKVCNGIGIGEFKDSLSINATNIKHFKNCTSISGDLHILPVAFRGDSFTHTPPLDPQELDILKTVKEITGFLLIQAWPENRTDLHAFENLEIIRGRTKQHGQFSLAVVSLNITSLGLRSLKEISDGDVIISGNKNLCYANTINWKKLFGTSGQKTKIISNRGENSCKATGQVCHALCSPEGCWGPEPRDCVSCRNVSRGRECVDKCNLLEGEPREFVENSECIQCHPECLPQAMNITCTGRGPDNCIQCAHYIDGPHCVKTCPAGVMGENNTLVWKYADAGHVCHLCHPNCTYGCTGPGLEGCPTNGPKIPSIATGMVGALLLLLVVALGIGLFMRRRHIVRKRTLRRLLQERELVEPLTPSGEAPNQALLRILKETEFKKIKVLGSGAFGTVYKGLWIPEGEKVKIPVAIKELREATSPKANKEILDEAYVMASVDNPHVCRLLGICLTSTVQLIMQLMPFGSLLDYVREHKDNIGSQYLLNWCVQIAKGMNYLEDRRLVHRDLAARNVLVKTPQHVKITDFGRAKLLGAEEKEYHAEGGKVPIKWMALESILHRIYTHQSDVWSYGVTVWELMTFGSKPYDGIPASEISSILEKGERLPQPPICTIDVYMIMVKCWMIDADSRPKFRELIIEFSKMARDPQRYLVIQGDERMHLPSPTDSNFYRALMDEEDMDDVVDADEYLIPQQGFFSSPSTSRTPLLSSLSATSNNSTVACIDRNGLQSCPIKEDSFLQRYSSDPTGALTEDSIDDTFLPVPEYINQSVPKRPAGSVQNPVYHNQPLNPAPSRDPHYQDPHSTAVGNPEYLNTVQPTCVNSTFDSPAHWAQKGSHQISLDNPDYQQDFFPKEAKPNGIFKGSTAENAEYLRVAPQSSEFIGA

As a reminder, the DC50 is the concentration at which degradation of the target reaches its halfway point. As usually defined, the Dmax is the greatest extent of degradation seen. Consider `COc1cc(N2CCC3(CC2)CCN(C2CCN(c4cc(F)c([C@H]5CCC(=O)NC5=O)c(F)c4)CC2)CC3)c(C)cc1Nc1ncc(Br)c(Nc2ccc3nccnc3c2P(C)(C)=O)n1` [Example 36, (R)-3-(4-(4-(9-(4-((5-bromo-4-((5-(dimethylphosphoryl)quinoxalin-6-yl)amino)pyrimidin-2-yl)amino)-5-methoxy-2-methylphenyl)-3,9-diazaspiro [5.5]undecan-3-yl)piperidin-1-yl)-2,6-difluorophenyl)piperidine-2,6-dione], for which, on EGFR-L858R/T790M/C797S, the DC50 was 4.5 nM and the Dmax came out at 94%. Besides, in the test with EGFR-Del19/T790M/C797S, the DC50 worked out at 3.1 nM and the “Dmax (%) H1975 # 28 DTC” value was determined as 93%.

Regarding `COc1cc(N2CCC3(CC2)CCN(C2CCN(c4cc(F)c([C@H]5CCC(=O)NC5=O)c(F)c4)CC2)CC3)c(C)cc1Nc1ncc(Br)c(Nc2ccc3nc(C)c(F)cc3c2P(C)(C)=O)n1` [Example 37, (R)-3-(4-(4-(9-(4-((5-bromo-4-((5-(dimethylphosphoryl)-3-fluoro-2-methylquinolin-6-yl)amino)pyrimidin-2-yl)amino)-5-methoxy-2-methylphenyl)-3,9-diazaspiro[5.5]undecan-3-yl)piperidin-1-yl)-2,6-difluorophenyl)piperidine-2,6-dione], at EGFR-L858R/T790M/C797S, the DC50 came out at 1.4 nM and the Dmax stood at 95%. In the test on EGFR-Del19/T790M/C797S, the half-maximal degradation concentration (DC50) was 3.3 nM and the “Dmax (%) H1975 # 28 DTC” value is 90%.

As to `CCc1cc(Nc2ncc(Br)c(Nc3ccc4nc(C)c(F)cc4c3P(C)(C)=O)n2)c(OC)cc1N1CCC2(CC1)CCN(C1CN(c3cc(F)c([C@H]4CCC(=O)NC4=O)c(F)c3)C1)CC2` [Example 38, (R)-3-(4-(3-(9-(4-((5-bromo-4-((5-(dimethylphosphoryl)-3-fluoro-2-methylquinolin-6-yl)amino)pyrimidin-2-yl)amino)-2-ethyl-5-methoxyphenyl)-3,9-diazaspiro[5.5]undecan-3-yl)azetidin-1-yl)-2,6-difluorophenyl)piperidine-2,6-dione], on EGFR-L858R/T790M/C797S, the DC50 turned out to be 8.6 nM and the Dmax amounted to 89%. For the same compound, in the test with EGFR-Del19/T790M/C797S, the 50% degradation concentration (DC50) turned out to be 7.4 nM and the “Dmax (%) H1975 # 28 DTC” value is reported as 85%.

For the compound `CCc1cc(Nc2ncc(Br)c(Nc3ccc4nc(C)c(F)cc4c3P(C)(C)=O)n2)c(OC)cc1N1CCC2(CCN(CC3CN(c4cc(F)c([C@H]5CCC(=O)NC5=O)c(F)c4)C3)CC2)CC1` [Example 39, (R)-3-(4-(3-((9-(4-((5-bromo-4-((5-(dimethylphosphoryl)-3-fluoro-2-methylquinolin-6-yl)amino)pyrimidin-2-yl)amino)-2-ethyl-5-methoxyphenyl)-3,9-diazaspiro[5.5]undecan-3-yl)methyl)azetidin-1-yl)-2,6-difluorophenyl)piperidine-2,6-dione], at EGFR-L858R/T790M/C797S, the 50% degradation concentration (DC50) was 5.6 nM and the Dmax worked out at 93%. In the test with EGFR-Del19/T790M/C797S, the DC50 was 2.6 nM and the “Dmax (%) H1975 # 28 DTC” value turned out to be 92%.

As for `CCc1ncc2c(P(C)(C)=O)c(Nc3nc(Nc4cc(CC)c(N5CCC6(CCN(CCc7cc(F)c([C@H]8CCC(=O)NC8=O)c(F)c7)CC6)CC5)cc4OC)ncc3Br)ccc2n1` [Example 40, (R)-3-(4-(2-(9-(4-((5-bromo-4-((5-(dimethylphosphoryl)-2-ethylquinazolin-6-yl)amino)pyrimidin-2-yl)amino)-2-ethyl-5-methoxyphenyl)-3,9-diazaspiro[5.5]undecan-3-yl)ethyl)-2,6-difluorophenyl)piperidine-2,6-dione], at EGFR-L858R/T790M/C797S, the DC50 stood at 6 nM and the Dmax stood at 86%. Moreover, in the test with EGFR-Del19/T790M/C797S, the 50% degradation concentration (DC50) amounted to 2.4 nM and the “Dmax (%) H1975 # 28 DTC” value was 88%.

For `CCc1cc(Nc2ncc(Cl)c(Nc3ccc4nc(C)c(F)cc4c3P(C)(C)=O)n2)c(OC)cc1N1CCC2(CCN(CCc3cc(F)c([C@H]4CCC(=O)NC4=O)c(F)c3)CC2)CC1` [Example 41, (R)-3-(4-(2-(9-(4-((5-chloro-4-((5-(dimethylphosphoryl)-3-fluoro-2-methylquinolin-6-yl)amino)pyrimidin-2-yl)amino)-2-ethyl-5-methoxyphenyl)-3,9-diazaspiro[5.5]undecan-3-yl)ethyl)-2,6-difluorophenyl)piperidine-2,6-dione], at EGFR-L858R/T790M/C797S, the DC50 was found to be 4.2 nM and the Dmax worked out at 88%. Also, in the test with EGFR-Del19/T790M/C797S, the DC50 is 4.2 nM and the “Dmax (%) H1975 # 28 DTC” value worked out at 86%.

As to `CCc1ncc2c(P(C)(C)=O)c(Nc3nc(Nc4cc(C)c(N5CCC6(CCN(CCc7cc(F)c([C@H]8CCC(=O)NC8=O)c(F)c7)CC6)CC5)cc4OC)ncc3Cl)ccc2n1` [Example 42, (R)-3-(4-(2-(9-(4-((5-chloro-4-((5-(dimethylphosphoryl)-2-ethylquinazolin-6-yl)amino)pyrimidin-2-yl)amino)-5-methoxy-2-methylphenyl)-3,9-diazaspiro[5.5]undecan-3-yl)ethyl)-2,6-difluorophenyl)piperidine-2,6-dione], on EGFR-L858R/T790M/C797S, the 50% degradation concentration (DC50) worked out at 4.9 nM and the greatest degradation seen (Dmax) stood at 85%. In the test on EGFR-Del19/T790M/C797S, the DC50 is 1.5 nM and the “Dmax (%) H1975 # 28 DTC” value is reported as 93%.

For the compound `CCc1cc(Nc2ncc(Br)c(Nc3ccc4nc(C)c(F)cc4c3P(C)(C)=O)n2)c(OC)cc1N1CCC2(CCN(CCN(C)c3cc(F)c([C@H]4CCC(=O)NC4=O)c(F)c3)CC2)CC1` [Example 44, (R)-3-(4-((2-(9-(4-((5-bromo-4-((5-(dimethylphosphoryl)-3-fluoro-2-methylquinolin-6-yl)amino)pyrimidin-2-yl)amino)-2-ethyl-5-methoxyphenyl)-3,9-diazaspiro[5.5]undecan-3-yl)ethyl)(methyl)amino)-2,6-difluorophenyl)piperidine-2,6-dione], on EGFR-L858R/T790M/C797S, the DC50 is 4.2 nM and the maximal degradation (Dmax) came to 92%. In the test on EGFR-Del19/T790M/C797S, the DC50 was determined as 3.5 nM and the “Dmax (%) H1975 # 28 DTC” value was 90%.

Turning to `CCc1cc(Nc2ncc(Br)c(Nc3ccc4nc(C)c(F)cc4c3P(C)(C)=O)n2)c(OC)cc1N1CCC2(CCN(CC3CCN(c4cccc5c4C(=O)N(C4CCC(=O)NC4=O)C5=O)CC3)CC2)CC1` (stereo not shown) [Example 45, 4-(4-((9-(4-((5-bromo-4-((5-(dimethylphosphoryl)-3-fluoro-2-methylquinolin-6-yl)amino)pyrimidin-2-yl)amino)-2-ethyl-5-methoxyphenyl)-3,9-diazaspiro[5.5]undecan-3-yl)methyl)piperidin-1-yl)-2-(2,6-dioxopiperidin-3-yl)isoindoline-1,3-dione], on EGFR-L858R/T790M/C797S, the DC50 was determined as 7.4 nM and the Dmax was 86%. Further, in the test with EGFR-Del19/T790M/C797S, the DC50 is 7.7 nM and the “Dmax (%) H1975 # 28 DTC” value is 81%.

As for `CCc1cc(Nc2ncc(Br)c(Nc3ccc4nc(C)c(F)cc4c3P(C)(C)=O)n2)c(OC)cc1N1CCC2(CCN(CC3CCN(c4ccc5c(c4)C(=O)N(C4CCC(=O)NC4=O)C5=O)CC3)CC2)CC1` (stereo not shown) [Example 46, 5-(4-((9-(4-((5-bromo-4-((5-(dimethylphosphoryl)-3-fluoro-2-methylquinolin-6-yl)amino)pyrimidin-2-yl)amino)-2-ethyl-5-methoxyphenyl)-3,9-diazaspiro [5.5]undecan-3-yl)methyl)piperidin-1-yl)-2-(2,6-dioxopiperidin-3-yl)isoindoline-1,3-dione], on EGFR-L858R/T790M/C797S, the DC50 is 5.4 nM and the Dmax amounted to 89%. In addition, in the test with EGFR-Del19/T790M/C797S, the DC50 worked out at 3.3 nM and the “Dmax (%) H1975 # 28 DTC” value came out at 80%.
